Source: patent US20190111055A1, “USE OF PHARMACEUTICAL COMPOSITION FOR THE TREATMENT OF SKIN ERYTHEMA IN POIKILODERMAS” (priority 2016, published 2019)

Legend:
[1] = clinical studies for acute erythema or diseases such as rosacea; cited from earlier work
[2] = tested on: skin lesions of Poikiloderma of Civatte
Source text: FIG. 1 represents the delimited area of the patient's skin to be treated with a composition described in this document, containing an alpha-adrenergic agonist, namely brimonidine gel 0.33%, prior to applying the medicine.
FIG. 2 represents the area of the patient's skin to be treated with the composition mentioned above, immediately after applying the medicine.
Drawing 1 represents the area selected and marked with white pencil for applying a product containing the alpha-adrenergic agonist brimonidine at 0.33% on skin lesions of Poikiloderma of Civatte; this drawing represents the area prior to application. Drawing 2 represents the moment immediately after applying the composition, which was restricted to the small area marked on the skin of the patient.

For `Brc1c(NC2=NCCN2)ccc2nccnc12` [brimonidine], the “adverse events (most common: erythema, redness, burning sensation, contact dermatitis)” value [1] is given as “less than or equal to 1%”, the “color of the skin affected by Poikiloderma of Civatte” value ([2]; brimonidine at 0.33%, topical, marked skin area, 40 minutes after applying) is given as “effective improvement in the color of the skin” and the “redness of the Poikiloderma of Civatte erythema” value ([2]; topical application of the product) is given as “visibly improves the redness”.
